Data on one molecule can be found in ChEMBL document CHEMBL1156284, “Tetrahydroindolizinone NK1 antagonists” (Bioorg Med Chem Lett, 2010).

Usually Vd stands for a proportionality between amount in the body and measured concentration, not a real space. Read a low Vd as confinement near the circulation. For orientation: IC50 means the concentration at which inhibition is half-maximal. The term half-life denotes how long it takes for the measured level to halve. Usually bioavailability stands for the share of a dose that reaches the circulation, judged against a reference dose that is usually intravenous. In general, clearance refers to the volume of plasma or blood freed of the substance per unit of time. Lower therefore signals inefficient removal. Broadly, the inhibition is the drop in the measured response relative to a control, in per cent.

Data set [1] can be described thus: Volume of distribution in dog. It is filed as ADME, organism-based, Canis lupus familiaris. To be noted: in vivo.
A further data set deals with Cytochrome P450 3A4 (Homo sapiens, UniProt P08684). Kind of data set: Inhibition of CYP3A4. It is filed as ADME.
Chain of Cytochrome P450 3A4 (P08684 whole entry): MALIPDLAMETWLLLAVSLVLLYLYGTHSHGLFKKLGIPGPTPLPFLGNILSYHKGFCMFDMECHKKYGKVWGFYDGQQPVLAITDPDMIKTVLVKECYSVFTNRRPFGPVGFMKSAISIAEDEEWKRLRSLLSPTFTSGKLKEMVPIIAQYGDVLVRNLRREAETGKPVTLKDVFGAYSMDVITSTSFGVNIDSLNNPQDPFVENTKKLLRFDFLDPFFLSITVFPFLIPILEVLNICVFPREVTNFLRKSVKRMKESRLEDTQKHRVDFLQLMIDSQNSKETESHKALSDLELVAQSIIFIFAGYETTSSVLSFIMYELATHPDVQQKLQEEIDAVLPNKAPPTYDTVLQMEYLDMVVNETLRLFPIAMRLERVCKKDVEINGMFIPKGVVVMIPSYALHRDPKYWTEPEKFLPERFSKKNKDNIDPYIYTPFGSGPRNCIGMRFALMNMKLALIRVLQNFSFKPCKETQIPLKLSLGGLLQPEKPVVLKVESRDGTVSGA
Data set [2] deals with T1, Substance-P receptor (Homo sapiens, UniProt P25103). As to the kind of experiment: Displacement of [125I]substance P from human NK1 receptor expressed in CHO cells in presence of 50% human serum. It is filed as cell-based. On the technique in general: Displacement assays read how much labelled ligand stays bound in the presence of the test substance.
T1 sequence (P25103 whole entry): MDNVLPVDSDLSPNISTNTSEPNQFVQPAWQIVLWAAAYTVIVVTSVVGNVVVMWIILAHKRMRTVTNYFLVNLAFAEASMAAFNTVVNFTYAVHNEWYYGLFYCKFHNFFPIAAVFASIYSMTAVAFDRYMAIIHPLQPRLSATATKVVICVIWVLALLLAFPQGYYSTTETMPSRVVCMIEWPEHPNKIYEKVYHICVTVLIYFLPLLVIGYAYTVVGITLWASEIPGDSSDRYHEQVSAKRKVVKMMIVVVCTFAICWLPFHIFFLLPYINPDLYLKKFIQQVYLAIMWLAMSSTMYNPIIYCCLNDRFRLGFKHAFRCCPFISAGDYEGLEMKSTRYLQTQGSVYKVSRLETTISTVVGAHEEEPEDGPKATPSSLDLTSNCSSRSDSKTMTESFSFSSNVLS
The nature of data set [3]: Half life in dog. The settings on record: in vivo. It is filed as ADME, organism-based, Canis lupus familiaris.
Another data set has as its target Cytochrome P450 2D6 (Homo sapiens, UniProt P10635). Kind of data set: Inhibition of CYP2D6. It is filed as ADME.
For data set [4], the system named is Gerbillinae. Kind of data set: (§1) Toxicity in iv dosed gerbil assessed as inhibition of GR-73632-induced foot tapping after 1 hr. It is filed as organism-based. To be noted: in vivo.
Data set [5] can be described thus: Oral bioavailability in dog. The settings on record: in vivo. It is filed as ADME, organism-based, Canis lupus familiaris.
The test system of data set [6] is Gerbillinae. The description is as §1. It is filed as organism-based. To be noted: in vivo. The source holds these as a separate data set.
Data set [7] in a line: Half life in rat. It is filed as ADME, organism-based. The settings on record: in vivo.
Data set [8] concerns Gerbillinae. As to the kind of experiment: Toxicity in iv dosed gerbil assessed as inhibition of GR-73632-induced foot tapping after 24 hrs. It is filed as organism-based. To be noted: in vivo.
Data set [9] deals with T1, Substance-P receptor. As to the kind of experiment: Antagonist activity at human NK1 receptor assessed as substance P-stimulated inositol phosphate generation at 100 nM. It is filed as functional.
In the next data set the target is Cytochrome P450 2C9 (Homo sapiens, UniProt P11712). Kind of data set: Inhibition of CYP2C9. It is filed as ADME.
Chain of Cytochrome P450 2C9 (P11712 whole entry): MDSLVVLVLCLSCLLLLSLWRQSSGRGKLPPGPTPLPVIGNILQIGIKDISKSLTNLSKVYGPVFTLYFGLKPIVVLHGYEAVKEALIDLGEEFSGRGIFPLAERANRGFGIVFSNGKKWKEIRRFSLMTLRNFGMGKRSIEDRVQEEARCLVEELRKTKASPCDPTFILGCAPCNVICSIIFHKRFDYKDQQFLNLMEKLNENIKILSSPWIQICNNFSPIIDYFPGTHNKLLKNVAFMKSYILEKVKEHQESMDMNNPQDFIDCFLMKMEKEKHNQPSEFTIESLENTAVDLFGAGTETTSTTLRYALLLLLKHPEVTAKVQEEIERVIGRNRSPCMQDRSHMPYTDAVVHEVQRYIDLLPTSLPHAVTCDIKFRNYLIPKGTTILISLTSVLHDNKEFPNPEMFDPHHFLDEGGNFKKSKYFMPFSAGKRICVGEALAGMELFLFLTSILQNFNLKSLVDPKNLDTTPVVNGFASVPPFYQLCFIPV
Data set [10] in a line: Volume of distribution in rat. To be noted: in vivo. It is filed as ADME, organism-based.
In data set [11] the test system is Gerbillinae. As to the kind of experiment: Toxicity in iv dosed gerbil assessed as inhibition of GR-73632-induced foot tapping after 24 hr. It is filed as organism-based. To be noted: in vivo.
The species named for the next data set is Rattus norvegicus. Kind of data set: Clearance in rat plasma. It is filed as ADME, organism-based. To be noted: in vivo.
Data set [12] addresses T1, Substance-P receptor. Kind of data set: Displacement of [125I]substance P from human NK1 receptor expressed in CHO cells. It is filed as cell-based.
In data set [13] the target is T2, Nuclear receptor subfamily 1 group I member 2 (Homo sapiens, UniProt O75469).
T2 sequence (O75469 whole entry): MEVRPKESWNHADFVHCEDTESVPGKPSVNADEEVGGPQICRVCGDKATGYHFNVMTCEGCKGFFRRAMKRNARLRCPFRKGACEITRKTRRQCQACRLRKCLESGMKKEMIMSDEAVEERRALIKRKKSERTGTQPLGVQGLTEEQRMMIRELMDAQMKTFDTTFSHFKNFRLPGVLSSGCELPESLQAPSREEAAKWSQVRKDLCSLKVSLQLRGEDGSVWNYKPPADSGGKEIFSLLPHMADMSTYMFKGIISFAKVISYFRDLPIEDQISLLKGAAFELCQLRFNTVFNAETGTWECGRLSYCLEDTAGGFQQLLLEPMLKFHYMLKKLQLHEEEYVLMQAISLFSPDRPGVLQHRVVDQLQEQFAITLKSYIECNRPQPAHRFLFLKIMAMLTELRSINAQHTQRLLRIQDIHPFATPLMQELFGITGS
As to the kind of experiment: Induction of human PXR.

Data set [14] deals with Gerbillinae. As to the kind of experiment: Toxicity in iv dosed gerbil assessed as inhibition of GR-73632-induced foot tapping at 3 mg/kg, iv after 24 hrs. It is filed as organism-based. The arrangement: dose 3 mg/kg, route intravenous.
A short description of data set [15]: Oral bioavailability in rat. The settings on record: in vivo. It is filed as ADME, organism-based.

Some results are limits rather than exact numbers.

Chain of Cytochrome P450 2D6 (P10635 whole entry): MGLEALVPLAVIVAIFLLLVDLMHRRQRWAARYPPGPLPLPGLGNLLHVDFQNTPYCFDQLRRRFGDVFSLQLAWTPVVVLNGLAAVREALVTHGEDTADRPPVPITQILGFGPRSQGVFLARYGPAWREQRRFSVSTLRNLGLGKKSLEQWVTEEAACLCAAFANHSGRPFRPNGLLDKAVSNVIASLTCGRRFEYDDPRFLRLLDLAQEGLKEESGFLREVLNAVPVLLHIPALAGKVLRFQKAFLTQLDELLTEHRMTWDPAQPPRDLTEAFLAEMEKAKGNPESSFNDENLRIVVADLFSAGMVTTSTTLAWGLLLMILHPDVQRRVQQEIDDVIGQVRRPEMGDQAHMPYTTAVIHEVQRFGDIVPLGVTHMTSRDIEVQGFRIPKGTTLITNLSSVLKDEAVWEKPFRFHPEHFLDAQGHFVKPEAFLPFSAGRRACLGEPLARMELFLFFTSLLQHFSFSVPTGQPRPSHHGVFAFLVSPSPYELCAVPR

As to `C[C@@H](O[C@H]1CN2C(=O)C=C(C3=CCN(C(C)(C)C)CC3)CC2[C@@H]1c1ccc(F)cc1)c1cc(C(F)(F)F)cc(C(F)(F)F)c1` (some centres undefined), the distribution volume (Vd) worked out at 11 L/kg in data set [1] and 7.2 L/kg in data set [10]. The IC50 on Cytochrome P450 3A4 is greater than 50 µM; at Substance-P receptor [2], 0.0019 µM; on Cytochrome P450 2D6 it was 35.7 µM; against Cytochrome P450 2C9, 36.5 µM; at Substance-P receptor [12], 0.00018 µM; in data set [13], greater than 30 µM. The half-life was 8.8 h in data set [3] and 2.8 h in [7]. Besides, the ID50 was 0.05 mg/kg in the data set with Gerbillinae [4], 0.05 mg/kg in the data set with Gerbillinae [6], 0.49 mg/kg in the data set on Gerbillinae [8] and 0.49 mg/kg in the data set with Gerbillinae [11]. Further, the bioavailability turned out to be 44% in data set [5] and 5.3% in data set [15]. Besides, the IP at Substance-P receptor [9] was determined as 2%. In addition, the clearance in the data set listed under Rattus norvegicus is 33 mL/min/kg. Also, in the data set with Gerbillinae [14], the inhibition at 3 mg/kg is 100%.
